Results reported in patent US11077205B2, “Synthetic compound for improving efficiency of transfection” (Klinikum der Universität München, priority 2016, dated 2021).
The star is where a group is joined. ξ: configuration not given here. Lipoyl(6ξ) = O=C(CCCCC1CCSS1)*

How the values were obtained:
[1] = Size and zeta potential measurements (Zetasizer Nano ZS) of P704 based binary and ternary complexes; assay type: physicochemical
Protocol: Size and zeta potential measurements: Particle size and zeta potential measurements of P704 based binary and ternary complexes were measured using a Zetasizer Nano ZS (Malvern Instruments Ltd.) at 25° C. Binary complexes were prepared in Tyrode's solution at a weight/weight ratio (P704/IVT-mRNA or pDNA) of 63:1. Ternary complexes were prepared in NF-water with P704 at a weight/weight ratio of 63:1 and the compound at N/P ratio of 10:1 (compound 0 (DL) and compound 8) or 5:1 (compound 4 and compound 9) using methods described above. The IVT-mRNA and pDNA concentration in both binary and ternary complexes was fixed at 10 μg/ml.
The results of physical characterizations (size and zeta potential) of P704 based binary and ternary complexes containing IVT-mRNA or pDNA are given in the following table: […]

16HBE cells [2] = test: Cell endocytosis mechanism assay, uptake of Fluo-pDNA containing P704 based ternary complexes (flow cytometry); parameters: species or system human; settings: for endocytosis of ternary complexes in presence of free compound and its fragments (competition): FIG. 11c/11d
Protocol: In order to study the cellular uptake different binary and ternary complexes, 16 HBE cells (7×10^5/well) were seeded in 6-well plate 24 h before investigation. P704 based binary complexes were prepared by mixing P704 at the concentration of 63 (w/w) with Fluo-pDNA in Tyrode's solution. Compound 9 based binary complexes were prepared by mixing compound 9 at the N/P ratio of 5 with Fluo-pDNA in NF-water. P704 based ternary complexes consisted of P704 at the concentration of 63 (w/w), compound 0 (DL) or compound 9 at optimum N/P ratio and Fluo-pDNA. P304 based ternary complexes consisted of P304 at the concentration of 2000 (w/w), compound 8 at N/P ratio of 20 and Fluo-pDNA. P90R4 based ternary complexes consisted of P90R4 at the concentration of 1600 (w/w), compound 8 at N/P ratio of 15 and Fluo-pDNA. The amount of Fluo-pDNA in each sample was 4 μg/well. Naked Fluo-pDNA was served as a negative control. After 4 h incubation, medium was removed. The cells were harvested and rinsed with cold PBS for three times followed immediately by flow cytometry analysis. The amount of 10 000 live cells was collected for each sample.
With the purpose of identifying possible internalization mechanisms of ternary complexes by human bronchial epithelium cells, 16 HBE cells were pre-incubated at different temperatures or treated with specific agents at 37° C. for 1 h, then incubated with P704 based ternary complexes in the same conditions as described above. (I, II) To examine the effects of chlorpromazine and filipin, which were the clathrin- and caveolae-dependent endocytosis inhibitors, 10 μg/ml chlorpromazine or 1 μg/ml filipin in OptiMEM were used. (III) To study the effect of amiloride (macropinocytosis inhibitor), 0.3 mg/ml amiloride was adopted. (IV) To investigate the effect of protamine, an adsorptive-mediated endocytosis inhibitor, 1 mM protamine sulfate was added. […]

airway epithelium cells = test: In vitro transfection study on cultured airway epithelium cells (luciferase, RLU/mg cellular protein); assay type: cell-based; settings: ternary complexes formed by P704, a nucleic acid and the compound
Protocol: In vitro transfection: For the luciferase assay, cells were seeded at a density of 1.8×10^4/well (BEAS-2B) or 3.5×10^4/well (16HBE) in 96-well plates 24 h before transfection to reach 60-80% confluence. Following removal of growth medium, cells were rinsed with DPBS (Gibco, Germany). 170 μl of fresh serum-free OptiMEM (Gibco, Germany) were added per well, and subsequently 30 μl of IVT-mRNA or pDNA containing complexes prepared, as described above, corresponding to 400 ng IVT-mRNA or pDNA per well, were added in replicates of five. After 4 h of incubation at 37° C. in a humidified 5% CO2-containing atmosphere, the transfection medium was replaced with culture medium supplemented with 10% FBS and 1% (v/v) penicillin/streptomycin. […] assayed with Metridia luciferase substrate (coelenterazine, Invivogen, France) after 24 h using a FLUOstar microplate reader (BMG Labtech, […]). In all cases each sample was measured on at least two other occasions to ensure the reproducibility of the data.

16HBE cells [3] = test: In vitro transfection, Metridia luciferase assay in 16HBE cells; assay type: cell-based, human; settings: day 2

Row | Substance | particle size of ternary complex compared with other counterparts [1] | cell uptake of ternary complexes at 4° C. and in the presence of NaN3 (16HBE cells [2]; FIG. 11a) | endocytosis of ternary complexes in presence of free compound and its fragments (competition) (16HBE cells [2]) | transfection efficiencies of ternary complexes with compound 0 (DL) versus compound 0 (R) (airway epithelium cells) | pDNA expression compared with compound 3 containing ternary complex (16HBE cells [3])
1 | KETWWETWWTEWWTEW-KKKKRRRRRKKKK-GACSERSMNFCG (KETWWETWWTEWWTEWKKKKRRRRRKKKKGACSERSMNFCG) [compound 9] | slightly smaller | Energy-dependent cell uptake | inhibited by free compound 9 and free peptide GACSERSMNFCG |  | 
2 | NH2-VKRKKKPKKRRRRKKWK(DL-lipoic acid)-CONH2 (H-VKRKKKPKKRRRRKKWK(Lipoyl(6ξ))-NH2; SMILES CC(C)[C@H](N)C(=O)N[C@@H](CCCCN)C(=O)N[C@@H](CCCNC(=N)N)C(=O)N[C@@H](CCCCN)C(=O)N[C@@H](CCCCN)C(=O)N[C@@H](CCCCN)C(=O)N1CCC[C@H]1C(=O)N[C@@H](CCCCN)C(=O)N[C@@H](CCCCN)C(=O)N[C@@H](CCCNC(=N)N)C(=O)N[C@@H](CCCNC(=N)N)C(=O)N[C@@H](CCCNC(=N)N)C(=O)N[C@@H](CCCNC(=N)N)C(=O)N[C@@H](CCCCN)C(=O)N[C@@H](CCCCN)C(=O)N[C@@H](Cc1c[nH]c2ccccc12)C(=O)N[C@@H](CCCCNC(=O)CCCCC1CCSS1)C(N)=O) [compound 0 (DL)] |  |  | cannot be inhibited by free compound 0 (DL) and its fragment sequence | similar | similar
